Measured values taken from PubChem BioAssay (NCI).
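These data come from cells grown in 96-well plates and exposed to compound for 48 hours at five concentrations. GI50 marks 50% less growth. TGI is the concentration that stops growth completely.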

Key:
Assay in all cases: growth of human tumour cells (NCI), 48 h
IGROV1 ovarian = test system: IGROV1 ovarian
DMS 273 small cell lung = test system: DMS 273 small cell lung
RPMI-8226 leukemia = test system: RPMI-8226 leukemia
SNB-19 CNS = test system: SNB-19 CNS
UO-31 renal = test system: UO-31 renal
COLO 205 colon = test system: COLO 205 colon
HCT-15 colon = test system: HCT-15 colon
SK-OV-3 ovarian = test system: SK-OV-3 ovarian
SNB-78 CNS = test system: SNB-78 CNS
MDA-MB-435 = test system: MDA-MB-435

Structure (SMILES) | TGI (IGROV1 ovarian) [µM] | TGI (DMS 273 small cell lung) [µM] | TGI (RPMI-8226 leukemia) [µM] | TGI (SNB-19 CNS) [µM] | TGI (UO-31 renal) [µM] | TGI (COLO 205 colon) [µM] | TGI (HCT-15 colon) [µM] | TGI (SK-OV-3 ovarian) [µM] | TGI (SNB-78 CNS) [µM] | TGI (MDA-MB-435) [µM] | GI50 (IGROV1 ovarian) [µM] | GI50 (RPMI-8226 leukemia) [µM] | GI50 (COLO 205 colon) [µM] | GI50 (HCT-15 colon) [µM] | GI50 (DMS 273 small cell lung) [µM] | GI50 (SNB-19 CNS) [µM] | GI50 (MDA-MB-435) [µM] | GI50 (UO-31 renal) [µM] | GI50 (SK-OV-3 ovarian) [µM] | GI50 (SNB-78 CNS) [µM]
CCOC(=O)c1c(-c2ccccc2)c(C(OC(c2ccccc2)c2c(-c3ccccc3)c(C(=O)OCC)n3ccccc23)c2ccccc2)c2ccccn12 (stereo not given) | > 100 | > 100 | > 100 | > 100 | > 100 | > 100 | > 100 | > 100 | > 100 |  |  |  |  |  |  |  |  |  |  | 
Clc1ccc2ns[s+]c2c1 | > 100 | > 100 | > 100 | > 100 | > 66.8 | > 44.9 | > 100 | > 100 | > 100 | > 100 |  |  |  |  |  |  |  |  |  | 
CN1C(=O)C2C=CC1C1CCC2N(C)C1=O (stereo not given) | > 100 | > 100 | > 100 | > 100 | > 100 | > 100 | > 100 | > 100 | > 100 |  |  |  |  |  |  |  |  |  |  | 
Cc1c(Cl)cccc1NC(=O)/C(Cl)=C(\Cl)C(=O)O | 35.7 | 38.4 | 56.5 | > 100 | 32.7 | 21.6 | 30 | 33.3 | 44.7 |  |  |  |  |  |  |  |  |  |  | 
C/C(=N\NC(=S)N1CCN(c2ccccn2)CC1)c1nccs1 | 20.2 | 11.4 | 23.2 | 32.8 | 14 | 15.3 | 21.3 | 18.3 | 71.4 | 12.8 | 0.0817 | 0.0145 | 0.0361 | 0.0472 |  |  |  |  |  | 
COC(=O)C1Cc2c([nH]c3ccccc23)C(c2ccccc2O)N1Cc1ccccc1 (stereo not given) | 33.3 | > 31.6 | > 100 | > 31.6 | > 46.4 | > 46.4 | > 46.4 | 40.1 | > 46.4 |  |  |  |  |  |  |  |  |  |  | 
COc1c(Sc2ccccc2)cc(Sc2ccccc2)c2cccnc12 | > 100 | 49.3 | 50 | > 100 | 54 | 39 | 49.3 | > 100 | > 100 |  |  |  |  |  |  |  |  |  |  | 
COC(=O)[C@H]1N[C@@H](C(=O)OC)C23CCC[C@H]2CC[C@]1(C(OC)OC)C3 | > 100 | > 100 | > 100 | > 100 | > 100 | > 100 | > 100 | > 100 | > 100 |  |  |  |  |  |  |  |  |  |  | 
NC(=O)c1csc(C2CCC(CO)O2)n1 (stereo not given) | > 100 | > 100 | > 100 | > 100 | > 100 | > 100 | > 100 | > 100 | > 100 |  |  |  |  |  |  |  |  |  |  | 
O=C(CSc1nc(-c2ccccc2)c(-c2ccccc2)[nH]1)NNC(=S)Nc1ccccc1 | > 100 | > 100 | > 100 | > 100 | > 100 | > 100 | > 100 | > 100 | > 100 |  |  |  |  |  |  |  |  |  |  | 
CC(/C=C/NNC1=NC(c2ccccc2)C(c2ccccc2)=NN1)Sc1ccccc1N (stereo not given) | 30 | 22.9 | > 100 | 25.1 | 20.1 | 31 | 19.8 | 31 | 67.9 |  |  |  |  |  |  |  |  |  |  | 
COC(=O)c1ccc(C(=O)OC)c2nc3cc(C)ccc3nc12 | > 100 | > 100 | > 100 | > 100 | > 100 | > 100 | > 100 | > 100 | > 100 |  |  |  |  |  |  |  |  |  |  | 
CC1=C(/C=C/C(C)=C/C=C/C(C)=C/C=C/C=C(C)/C=C/C=C(C)/C=C/C2=C(C)C(=O)C(O)CC2(C)C)C(C)(C)CC(O)C1=O (stereo not given) | > 100 | > 100 | > 100 | > 100 | > 100 | > 100 | > 100 | > 100 | > 100 |  |  |  |  |  |  |  |  |  |  | 
O=C(O)Cc1ccccc1CCc1ccccc1Cl | > 100 | > 100 | > 100 | > 100 | > 100 | > 100 | > 100 | > 100 | > 100 |  |  |  |  |  |  |  |  |  |  | 
COc1ccc2ccccc2c1CN1CCOCCOCCN(Cc2c(OC)ccc3ccccc23)CCOCCOCC1 | > 100 | 70.5 | 73.2 | > 100 | > 100 | > 100 | > 100 | > 100 | > 100 |  |  |  |  |  |  |  |  |  |  | 
Clc1ccc2c(c1)[nH]c1c2nc2sccn21 | > 100 | > 100 | > 100 | > 100 | > 100 | > 100 | > 100 | > 100 | > 100 |  |  |  |  |  |  |  |  |  |  | 
Nc1cc2[nH]cnc2c(=O)[nH]1 | > 300 | > 146 | > 300 | > 300 | > 300 | 228 | > 300 | > 188 | > 300 | > 300 |  |  |  |  |  |  |  |  |  | 
CCC[CH2][Sn]1([CH2]CCC)[O]C(=O)c2ccc(N)cc2[O]1 | 2.97 | 2.56 | 1.79 | 2.17 | 1.82 | 1.98 | 2.21 | 2.92 | 1.18 | 3.08 | 1.51 | 0.143 | 0.594 | 0.46 | 1.04 | 0.734 | 1.58 | 0.465 | 1.34 | 0.0801
